Reference: ChEMBL document CHEMBL2311489 (Eur J Med Chem, 2013)
The source made the active and inactive calls. No cut-off for these calls is given here.

Columns and labels:
[1] = target: T1, 5-hydroxytryptamine receptor 7 (Homo sapiens, UniProt P34969); test: biochemical
[2] = target: 5-hydroxytryptamine receptor 2A (Homo sapiens, UniProt P28223); test: biochemical
Description: Displacement of [3H]-ketanserin from human 5HT2A receptor expressed in HEK293 after 1.5 hrs

[3] = target: T2, 5-hydroxytryptamine receptor 6 (Homo sapiens, UniProt P50406); test: biochemical
Description: (§1) Displacement of [3H]-LSD from human 5HT6 receptor expressed in HEK293 after 1 hr

[4] = target: T3, 5-hydroxytryptamine receptor 1A (Homo sapiens, UniProt P08908); test: biochemical
T3 sequence (P08908 whole entry): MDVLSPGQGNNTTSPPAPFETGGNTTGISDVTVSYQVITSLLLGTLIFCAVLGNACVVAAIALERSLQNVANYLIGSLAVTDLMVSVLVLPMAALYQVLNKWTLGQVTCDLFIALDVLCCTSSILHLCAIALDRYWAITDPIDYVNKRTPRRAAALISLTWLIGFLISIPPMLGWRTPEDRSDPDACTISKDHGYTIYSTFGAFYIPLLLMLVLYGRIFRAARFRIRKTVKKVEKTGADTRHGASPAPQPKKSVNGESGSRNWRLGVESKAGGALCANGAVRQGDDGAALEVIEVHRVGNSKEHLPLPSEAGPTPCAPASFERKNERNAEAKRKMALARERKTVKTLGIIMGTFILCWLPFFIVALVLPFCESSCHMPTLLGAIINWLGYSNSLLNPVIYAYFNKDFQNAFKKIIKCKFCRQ

[5] = target: T1, 5-hydroxytryptamine receptor 7
Mus musculus [6] = test: Antipsychotic activity in CD1 mouse assessed as inhibition MK-801-evoked hyperactivity at 2.5 to 20 mg/kg, ip after 30 mins; type: functional, organism-based
Mus musculus [7] = organism: Mus musculus; test: animal or person; details: Swiss albino, ip, read-out: ID50
Description: Antipsychotic activity in ip dosed Swiss albino mouse assessed as inhibition of apomorphine-induced climbing behavior administered 10 mins before apomorphine-challenge measured after 2 mins

[8] = target: D(3) dopamine receptor (Homo sapiens) (UniProt P35462); test: Displacement of [3H]-methylspiperone from human dopamine D3 receptor expressed in HEK293 at 10^-7 M after 1 hr; type: cell-based
Chain of D(3) dopamine receptor (Homo sapiens) (P35462 whole entry): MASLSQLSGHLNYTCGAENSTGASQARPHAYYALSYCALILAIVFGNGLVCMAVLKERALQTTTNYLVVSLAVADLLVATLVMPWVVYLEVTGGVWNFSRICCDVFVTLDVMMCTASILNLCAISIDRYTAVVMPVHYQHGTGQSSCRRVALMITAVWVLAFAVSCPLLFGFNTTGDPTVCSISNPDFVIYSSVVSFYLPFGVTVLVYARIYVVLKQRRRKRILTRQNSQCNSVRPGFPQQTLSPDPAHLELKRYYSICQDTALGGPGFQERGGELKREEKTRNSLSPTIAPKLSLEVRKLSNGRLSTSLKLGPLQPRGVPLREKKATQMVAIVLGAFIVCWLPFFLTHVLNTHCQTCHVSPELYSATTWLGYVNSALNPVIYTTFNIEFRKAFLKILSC

Mus musculus [9] = test: Toxicity in Swiss albino mouse assessed as locomotor activity at 5 to 20 mg/kg, ip measured after 2 to 6 mins; type: organism-based; design: route intraperitoneal; details: in vivo
[10] = target: Sodium-dependent serotonin transporter (Rattus norvegicus, UniProt P31652); test: biochemical
Chain of Sodium-dependent serotonin transporter (P31652 whole entry): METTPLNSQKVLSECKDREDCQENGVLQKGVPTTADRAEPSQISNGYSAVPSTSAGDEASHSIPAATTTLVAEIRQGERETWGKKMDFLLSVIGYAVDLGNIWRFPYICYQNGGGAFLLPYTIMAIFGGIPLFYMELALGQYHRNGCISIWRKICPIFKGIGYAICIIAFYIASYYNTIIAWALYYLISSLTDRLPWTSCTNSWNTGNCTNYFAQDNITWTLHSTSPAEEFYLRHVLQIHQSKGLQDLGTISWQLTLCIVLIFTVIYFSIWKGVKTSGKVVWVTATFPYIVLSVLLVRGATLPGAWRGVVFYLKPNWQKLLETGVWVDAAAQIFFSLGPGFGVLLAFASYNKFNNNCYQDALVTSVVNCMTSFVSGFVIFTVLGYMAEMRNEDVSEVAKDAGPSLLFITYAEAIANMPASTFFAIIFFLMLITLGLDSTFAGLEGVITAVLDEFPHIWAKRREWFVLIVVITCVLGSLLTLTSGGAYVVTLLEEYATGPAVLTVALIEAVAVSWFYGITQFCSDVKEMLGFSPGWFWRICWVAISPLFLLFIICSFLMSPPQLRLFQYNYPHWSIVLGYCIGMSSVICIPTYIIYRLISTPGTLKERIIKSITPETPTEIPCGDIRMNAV

Mus musculus [11] = test: Antidepressant activity in Swiss albino mouse assessed as reduction of immobility time at 10 mg/kg, ip measured during last 4 mins of a 6 mins test session by forced swim test; type: functional; design: scale not given: the % may be the effect or the level left; details: route intraperitoneal
[12] = target: T3, 5-hydroxytryptamine receptor 1A
Description: Agonist activity at human 5HT1A receptor expressed in CHO cells assessed as cAMP accumulation

[13] = target: T4, Adrenergic receptor alpha-1 (Rattus norvegicus, UniProt P15823+P23944+P43140)
T4 sequence (P15823 whole entry): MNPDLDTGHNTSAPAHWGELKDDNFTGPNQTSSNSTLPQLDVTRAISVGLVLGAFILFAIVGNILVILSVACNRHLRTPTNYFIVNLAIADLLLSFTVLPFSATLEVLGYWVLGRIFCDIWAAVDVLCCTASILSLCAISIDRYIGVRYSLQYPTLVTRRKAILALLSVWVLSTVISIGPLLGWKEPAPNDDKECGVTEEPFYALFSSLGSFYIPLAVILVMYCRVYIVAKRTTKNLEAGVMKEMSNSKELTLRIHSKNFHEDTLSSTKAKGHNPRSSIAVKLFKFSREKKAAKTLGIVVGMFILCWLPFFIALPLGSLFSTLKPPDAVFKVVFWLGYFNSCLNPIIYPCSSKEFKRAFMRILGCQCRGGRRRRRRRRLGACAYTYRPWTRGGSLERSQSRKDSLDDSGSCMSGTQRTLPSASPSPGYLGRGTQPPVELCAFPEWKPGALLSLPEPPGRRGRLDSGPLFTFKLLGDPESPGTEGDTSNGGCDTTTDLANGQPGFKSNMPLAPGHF
T4 sequence (P23944 whole entry): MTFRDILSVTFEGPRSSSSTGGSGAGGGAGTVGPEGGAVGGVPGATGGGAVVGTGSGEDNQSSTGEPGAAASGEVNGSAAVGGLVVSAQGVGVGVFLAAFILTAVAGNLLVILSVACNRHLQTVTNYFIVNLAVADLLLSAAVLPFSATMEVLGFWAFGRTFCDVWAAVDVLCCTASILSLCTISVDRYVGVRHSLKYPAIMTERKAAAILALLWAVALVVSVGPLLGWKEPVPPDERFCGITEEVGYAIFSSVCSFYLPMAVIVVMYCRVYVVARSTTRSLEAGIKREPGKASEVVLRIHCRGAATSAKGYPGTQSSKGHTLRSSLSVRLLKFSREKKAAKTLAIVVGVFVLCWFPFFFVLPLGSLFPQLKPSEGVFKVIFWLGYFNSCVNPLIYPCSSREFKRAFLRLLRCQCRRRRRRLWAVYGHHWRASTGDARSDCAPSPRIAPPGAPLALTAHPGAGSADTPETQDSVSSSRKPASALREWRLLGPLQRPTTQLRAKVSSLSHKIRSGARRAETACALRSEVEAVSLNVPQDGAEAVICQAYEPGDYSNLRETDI
T4 sequence (P43140 whole entry): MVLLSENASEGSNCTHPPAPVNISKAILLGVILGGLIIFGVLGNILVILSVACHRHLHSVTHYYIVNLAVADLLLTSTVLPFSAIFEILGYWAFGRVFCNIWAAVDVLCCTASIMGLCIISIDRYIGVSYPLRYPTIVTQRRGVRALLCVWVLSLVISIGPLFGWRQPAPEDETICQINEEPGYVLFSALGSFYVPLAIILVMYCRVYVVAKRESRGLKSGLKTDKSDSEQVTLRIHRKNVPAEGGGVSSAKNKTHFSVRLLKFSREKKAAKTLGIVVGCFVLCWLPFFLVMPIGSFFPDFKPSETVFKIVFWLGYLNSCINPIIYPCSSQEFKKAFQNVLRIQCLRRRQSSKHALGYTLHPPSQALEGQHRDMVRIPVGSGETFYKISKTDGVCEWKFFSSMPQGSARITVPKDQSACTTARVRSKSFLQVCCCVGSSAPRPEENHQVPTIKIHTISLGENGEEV
Description: Displacement of [3H]-Prazosin from adrenergic alpha1 receptor in rat cortex after 30 mins by scintillation counting

Mus musculus [14] = organism: Mus musculus; test: animal or person; details: Swiss albino, ip, 20 min, read-out: ID50
Description: Antipsychotic activity in ip dosed Swiss albino mouse assessed as inhibition of (+/-)DOI-induced head twitch response after 20 mins

Mus musculus [15] = test: Antidepressant activity in Swiss albino mouse assessed as reduction of immobility time at 20 mg/kg, ip measured during last 4 mins of a 6 mins test session by forced swim test; type: functional; design: scale not given: the % may be the effect or the level left; details: route intraperitoneal
Mus musculus [16] = test: Antipsychotic activity in Swiss albino mouse assessed as inhibition of apomorphine-induced climbing behavior at 5 mg/kg, ip administered 10 mins before apomorphine-challenge measured after 2 mins; type: functional; details: route intraperitoneal
[17] = target: D(3) dopamine receptor (Homo sapiens) (UniProt P35462); test: Displacement of [3H]-methylspiperone from human dopamine D3 receptor expressed in HEK293 at 10^-6 M after 1 hr; type: cell-based
D(2) dopamine receptor = D(2) dopamine receptor (Homo sapiens, UniProt P14416); test: biochemical; type: cell-based, HEK293
Chain of D(2) dopamine receptor (P14416 whole entry): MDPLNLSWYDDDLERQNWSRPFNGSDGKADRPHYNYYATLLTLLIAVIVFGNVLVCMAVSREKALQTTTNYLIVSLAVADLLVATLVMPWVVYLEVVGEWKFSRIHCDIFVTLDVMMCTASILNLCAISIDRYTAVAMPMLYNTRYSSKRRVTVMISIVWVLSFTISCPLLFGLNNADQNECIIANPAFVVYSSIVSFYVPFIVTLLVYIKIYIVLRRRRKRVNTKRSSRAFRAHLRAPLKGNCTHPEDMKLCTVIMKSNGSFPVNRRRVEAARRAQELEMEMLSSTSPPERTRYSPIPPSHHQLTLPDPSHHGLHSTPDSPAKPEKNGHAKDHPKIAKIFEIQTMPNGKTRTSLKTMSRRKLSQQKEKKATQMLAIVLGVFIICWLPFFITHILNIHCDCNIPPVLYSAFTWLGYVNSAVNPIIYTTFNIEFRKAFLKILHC
Description: Displacement of [3H]-raclopride from human dopamine D2L receptor expressed in HEK293 after 1 hr

Mus musculus [18] = test: Antipsychotic activity in CD1 mouse assessed as inhibition MK-801-evoked hyperactivity at 10 to 20 mg/kg, ip after 30 mins; type: functional, organism-based
[19] = target: T3, 5-hydroxytryptamine receptor 1A; remark: listed apart in the source
[20] = target: T1, 5-hydroxytryptamine receptor 7; remark: listed apart in the source
Mus musculus [21] = test: Antipsychotic activity in Swiss albino mouse assessed as inhibition of apomorphine-induced climbing behavior at 2.5 mg/kg, ip administered 10 mins before apomorphine-challenge measured after 2 mins; type: functional, organism-based; design: dose 2.5 mg/kg
Mus musculus [22] = test: Toxicity in CD1 mouse assessed as increase of MK-801-evoked hyperactivity at 20 mg/kg, ip after 30 mins; type: organism-based; design: dose 20 mg/kg, route intraperitoneal; details: in vivo, 0.5 h
[23] = target: T2, 5-hydroxytryptamine receptor 6
Description: as §1

Mus musculus [24] = test: Antidepressant activity in Swiss albino mouse assessed as reduction of immobility time at 5 mg/kg, ip measured during last 4 mins of a 6 mins test session by forced swim test; type: functional; design: scale not given: the % may be the effect or the level left; details: route intraperitoneal
Mus musculus [25] = test: Toxicity in CD1 mouse assessed as increase of MK-801-evoked hyperactivity at 10 mg/kg, ip after 30 mins; type: organism-based; design: dose 10 mg/kg, route intraperitoneal; details: in vivo, 0.5 h
Mus musculus [26] = test: Toxicity in Swiss albino mouse assessed as locomotor activity at 20 mg/kg, ip measured after 2 to 6 mins; type: organism-based; design: dose 20 mg/kg, route intraperitoneal; details: in vivo
Mus musculus [27] = test: Antipsychotic activity in Swiss albino mouse assessed as inhibition of apomorphine-induced climbing behavior at 1.25 mg/kg, ip administered 10 mins before apomorphine-challenge measured after 2 mins; type: functional; details: route intraperitoneal

T2 sequence (P50406 whole entry): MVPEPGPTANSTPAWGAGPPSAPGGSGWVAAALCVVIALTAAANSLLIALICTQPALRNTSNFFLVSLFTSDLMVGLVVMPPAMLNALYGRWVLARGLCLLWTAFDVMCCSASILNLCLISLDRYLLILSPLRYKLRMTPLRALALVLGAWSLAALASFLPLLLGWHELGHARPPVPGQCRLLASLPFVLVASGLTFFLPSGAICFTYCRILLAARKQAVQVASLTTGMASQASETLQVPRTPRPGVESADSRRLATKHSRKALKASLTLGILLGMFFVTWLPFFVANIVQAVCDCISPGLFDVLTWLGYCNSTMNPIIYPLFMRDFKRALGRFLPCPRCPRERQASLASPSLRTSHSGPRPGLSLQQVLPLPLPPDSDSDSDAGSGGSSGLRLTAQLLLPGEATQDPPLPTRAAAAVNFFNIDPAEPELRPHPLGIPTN
Chain of 5-hydroxytryptamine receptor 2A (P28223 whole entry): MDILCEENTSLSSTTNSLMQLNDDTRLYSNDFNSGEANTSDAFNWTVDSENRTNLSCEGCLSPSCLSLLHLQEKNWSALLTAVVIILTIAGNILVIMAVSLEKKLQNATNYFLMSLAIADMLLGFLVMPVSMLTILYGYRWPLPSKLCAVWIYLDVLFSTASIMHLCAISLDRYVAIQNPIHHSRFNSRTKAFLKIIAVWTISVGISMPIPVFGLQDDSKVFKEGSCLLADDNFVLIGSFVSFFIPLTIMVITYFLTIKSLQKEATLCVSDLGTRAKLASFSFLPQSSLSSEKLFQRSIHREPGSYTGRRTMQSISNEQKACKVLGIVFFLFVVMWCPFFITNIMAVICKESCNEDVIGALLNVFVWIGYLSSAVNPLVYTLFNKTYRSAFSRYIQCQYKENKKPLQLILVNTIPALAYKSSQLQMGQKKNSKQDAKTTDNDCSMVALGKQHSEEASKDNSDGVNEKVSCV
T1 sequence (P34969 whole entry): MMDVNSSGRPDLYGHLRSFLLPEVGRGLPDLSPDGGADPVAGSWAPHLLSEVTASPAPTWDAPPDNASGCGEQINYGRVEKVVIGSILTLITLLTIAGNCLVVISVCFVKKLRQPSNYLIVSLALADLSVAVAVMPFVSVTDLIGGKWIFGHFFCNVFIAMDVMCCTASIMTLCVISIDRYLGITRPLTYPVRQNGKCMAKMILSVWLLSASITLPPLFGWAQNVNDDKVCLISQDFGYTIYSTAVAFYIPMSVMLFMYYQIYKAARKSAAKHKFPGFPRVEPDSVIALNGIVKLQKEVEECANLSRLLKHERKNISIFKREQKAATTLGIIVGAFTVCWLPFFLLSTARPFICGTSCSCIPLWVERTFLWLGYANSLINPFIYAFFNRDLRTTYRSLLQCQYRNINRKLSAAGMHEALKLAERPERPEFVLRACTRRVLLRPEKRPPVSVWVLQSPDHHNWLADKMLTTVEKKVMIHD

Row | SMILES | Ki [1] [nM] | Ki [2] [nM] | Ki [3] [nM] | Ki [4] [nM] | IC50 [5] [nM] | inhibition [8] [%] | Ki [10] [nM] | EC50 [12] [nM] | Ki [13] [nM] | inhibition [17] [%] | Ki (D(2) dopamine receptor) [nM] | ED50 (Mus musculus [7]) [mg/kg] | Activity (Mus musculus [9]) | Activity (Mus musculus [11]) [%] | ED50 (Mus musculus [14]) [mg/kg] | Activity (Mus musculus [15]) [%] | inhibition in vivo at 5 mg/kg (Mus musculus [16]) [%] | other results
1 | O=S(=O)(NCCCCN1CCN(c2cccc(Cl)c2Cl)CC1)c1cnc2ccccc2c1 | 30 | 34 | 1330 | 23 | 7800 | 94 | 1200 | 1650 | 170 | 99 | 9 | 20.7 | Non-toxic | 31 | 20.2 | 30 | 49.3 | inhibition (Mus musculus [6]): inactive
2 | CSc1ccc2c(c1)C(CCN)=CC2 [METHIOTHEPINE] |  |  |  |  | 2.2 |  |  |  |  |  |  |  |  |  |  |  |  | 
3 | O=S(=O)(NCCCN1CCN(c2cccc(Cl)c2Cl)CC1)c1ccc2cccnc2c1 |  | 47 |  |  | 2800 | 90 | 224 | 7400 | 186 | 99 | 16 |  | Non-toxic | 79 | 10.2 |  | 50.5 | Ki [19]: 14 nM; Ki [20]: 12 nM; Activity (Mus musculus [21]): Active; Activity (Mus musculus [22]): Toxic; Ki [23]: 257 nM; Activity (Mus musculus [24]): 57%
4 | O=S(=O)(NCCCCN1CCN(c2cccc(Cl)c2Cl)CC1)c1ccc2cccnc2c1 |  | 22 |  |  | 3800 | 99 | 788 | 865 | 136 | 101 | 11 | 19.9 |  | 48 | 4.58 | 41 | 43.6 | Ki [19]: 17 nM; Ki [20]: 31 nM; Activity (Mus musculus [25]): Toxic; Activity (Mus musculus [26]): Toxic; Ki [23]: 301 nM
5 | O=S(=O)(NCCCN1CCN(c2cccc(Cl)c2Cl)CC1)c1cnc2ccc(Cl)cc2c1 | 46 | 115 | 901 | 23 |  |  |  |  |  |  |  |  |  |  |  |  |  | 
6 | O=S(=O)(NCCCCN1CCN(c2cccc(Cl)c2Cl)CC1)c1cnc2ccc(Cl)cc2c1 | 41 | 42 | 555 | 88 |  |  |  |  |  |  |  |  |  |  |  |  |  | 

Continued, in another order:

Row | Ki [1] [nM] | Ki [2] [nM] | Ki [3] [nM] | Ki [4] [nM] | IC50 [5] [nM] | inhibition [8] [%] | Ki [10] [nM] | EC50 [12] [nM] | Ki [13] [nM] | inhibition [17] [%] | Ki (D(2) dopamine receptor) [nM] | SMILES | ED50 (Mus musculus [7]) [mg/kg] | Activity (Mus musculus [9]) | Activity (Mus musculus [11]) [%] | ED50 (Mus musculus [14]) [mg/kg] | Activity (Mus musculus [15]) [%] | inhibition in vivo at 5 mg/kg (Mus musculus [16]) [%] | other results
7 | 124 | 23 | 484 | 79 |  |  |  |  |  |  |  | O=S(=O)(NCCCCN1CCN(c2cccc(Cl)c2Cl)CC1)c1ccc2ncccc2c1 |  |  |  |  |  |  | 
8 | 21 | 90 | 220 | 59 | 820 | 93 | 783 | 15000 | 160 | 95 | 8 | O=S(=O)(NCCCCN1CCN(c2cccc(Cl)c2Cl)CC1)c1cncc2ccccc12 | 11.3 | Non-toxic |  | 5.3 | 44 | 44.6 | inhibition (Mus musculus [18]): Active
9 |  | 35 |  |  | 5600 | 95 | 335 | 15500 | 255 | 98 | 17 | O=S(=O)(NCCCCN1CCN(c2cccc(Cl)c2Cl)CC1)c1cc2ccccc2cn1 | 19.9 | Non-toxic | 53 | 9.03 | 83 |  | Ki [19]: 34 nM; inhibition (Mus musculus [6]): inactive; Ki [20]: 56 nM; Ki [23]: 454 nM; inhibition in vivo at 1.25 mg/kg (Mus musculus [27]): 49.1%; Activity (Mus musculus [24]): 43%
10 | 27 | 29 | 598 | 112 |  |  |  |  |  |  |  | O=S(=O)(NCCCCN1CCN(c2cccc(Cl)c2Cl)CC1)c1cccc2cccnc12 |  |  |  |  |  |  | 
11 | 31 | 65 | 326 | 25 |  |  |  |  |  |  |  | O=S(=O)(NCCCN1CCN(c2cccc(Cl)c2Cl)CC1)c1ccc2ncccc2c1 |  |  |  |  |  |  | 
